# Assay results taken from article PMC9916978, “Enantioselective Human Serum Albumin Binding of Apremilast: Liquid Chromatographic, Fluorescence and Molecular Docking Study” (International Journal of Molecular Sciences, 2023).
# Experiments:
# [1] = target: T1, human serum albumin (HSA) (Homo sapiens, UniProt P02768); experiment: Albumin-bound percentage by zonal elution chromatography on Chiral-HSA column, extrapolated to zero organic modifier; type: binding; details: for Bound percentage (b%), Average + SD%: average over five organic modifiers
# T1 construct: purchased Chiral Technologies Inc., a subsidiary of Daicel Chemical Industries Ltd
# T1 sequence (P02768 25-609): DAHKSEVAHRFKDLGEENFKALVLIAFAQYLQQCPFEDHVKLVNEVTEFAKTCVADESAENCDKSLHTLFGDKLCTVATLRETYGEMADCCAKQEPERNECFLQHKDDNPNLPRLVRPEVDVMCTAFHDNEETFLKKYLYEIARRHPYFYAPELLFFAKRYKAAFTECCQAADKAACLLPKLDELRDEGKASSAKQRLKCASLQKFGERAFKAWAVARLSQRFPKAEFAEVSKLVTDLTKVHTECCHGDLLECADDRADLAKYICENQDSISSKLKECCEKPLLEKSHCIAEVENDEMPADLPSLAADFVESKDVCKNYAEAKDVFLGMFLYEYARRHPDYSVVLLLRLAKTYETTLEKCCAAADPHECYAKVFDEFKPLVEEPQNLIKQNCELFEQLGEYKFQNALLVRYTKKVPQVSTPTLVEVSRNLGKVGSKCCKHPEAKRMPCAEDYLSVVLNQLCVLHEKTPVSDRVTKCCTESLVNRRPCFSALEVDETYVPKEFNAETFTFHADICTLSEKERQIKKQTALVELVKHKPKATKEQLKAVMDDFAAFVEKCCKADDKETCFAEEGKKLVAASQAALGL
# Source text: As it was observed, the decrease of the organic modifier percentage in the mobile phase caused an exponential increase in the retention times of both enantiomers. Therefore, for the calculations, the logarithm of the retention factors was plotted against the organic modifier proportion. With this conversion, a linear relationship was obtained, which could be easily extrapolated to zero for supposedly the best imitation of in vivo conditions. As the intercept of these linear equations, a k value is expressed that can be used to calculate the bound% according to Equation (7).
# (§1) The separation factor (α) was calculated as follows:(6) α=k2/k1 where k1 and k2 are the retention factors of the first- and second-eluting enantiomer, respectively. The k values were used to calculate the albumin-bound percentage (b%) using Equation (7) by zonal elution chromatography:(7) b%=k/1+k·100
# [2] = target: T1, human serum albumin (HSA); experiment: Retention on Chiral-HSA column (HPLC) with different organic modifiers; type: binding; details: 25 °C
# Experimental: In the next step, different organic modifiers in different percentages were tested. Columns with immobilized proteins, such as Chiral-HSA, are very susceptible to the type and percentage of the organic modifier, which can lead to changes in the tridimensional structure of the protein and can alter the secondary interactions between the analyte and the CSP [30, 31]. According to the instructions of the column manufacturer, the maximum usable organic modifier percentage in the mobile phase was 20% [32]. In our study, the effect of 2-propanol (IPA), 1-propanol (PROP), ethanol (EtOH), methanol (MeOH) and acetonitrile (ACN) on the retention factor (k) and selectivity (α) was investigated. The organic modifiers were used in five different percentages in 10 mM phosphate buffer adjusted to pH 7, using a flow rate of 0.7 mL/min, at 25 °C.
# LC–UV analysis was carried out on an Agilent 1100 HPLC system consisting of a quaternary pump, an autosampler, a column compartment, and a DAD detector (Agilent Technologies, Waldbronn, Germany). ChemStation software (ver.: B04 03-SP2) was used for data analysis. UV detection was performed at 230 nm. The APR stock solution was prepared at 1 mg mL^−1 in MeOH, and further dilutions were made with water. An injection volume of 5 μL was used.
# The retention factor (k) was calculated using the following equation:(5) k=tr−t0/to where tr is the retention time of the analyte, and t0 is the dead time, determined as the first peak appearance in the chromatogram.
# as §1
# [3] = extrapolation to zero percentage of 1-propanol
# [4] = extrapolation to zero percentage of ACN
# [5] = extrapolation to zero percentage of EtOH
# [6] = extrapolation to zero percentage of IPA
# [7] = extrapolation to zero percentage of MeOH
# [8] = 1-PROP 2% in 10 mM phosphate buffer pH 7, 0.7 mL/min
# [9] = 1-PROP 4% in 10 mM phosphate buffer pH 7, 0.7 mL/min
# [10] = 1-PROP 6% in 10 mM phosphate buffer pH 7, 0.7 mL/min
# [11] = 1-PROP 8% in 10 mM phosphate buffer pH 7, 0.7 mL/min
# [12] = 1-PROP 10% in 10 mM phosphate buffer pH 7, 0.7 mL/min
# [13] = ACN 2% in 10 mM phosphate buffer pH 7, 0.7 mL/min
# [14] = ACN 4% in 10 mM phosphate buffer pH 7, 0.7 mL/min
# [15] = ACN 6% in 10 mM phosphate buffer pH 7, 0.7 mL/min
# [16] = ACN 8% in 10 mM phosphate buffer pH 7, 0.7 mL/min
# [17] = ACN 10% in 10 mM phosphate buffer pH 7, 0.7 mL/min
# [18] = EtOH 2% in 10 mM phosphate buffer pH 7, 0.7 mL/min
# [19] = EtOH 4% in 10 mM phosphate buffer pH 7, 0.7 mL/min
# [20] = EtOH 6% in 10 mM phosphate buffer pH 7, 0.7 mL/min
# [21] = EtOH 8% in 10 mM phosphate buffer pH 7, 0.7 mL/min
# [22] = EtOH 10% in 10 mM phosphate buffer pH 7, 0.7 mL/min
# [23] = IPA 2% in 10 mM phosphate buffer pH 7, 0.7 mL/min
# [24] = IPA 4% in 10 mM phosphate buffer pH 7, 0.7 mL/min
# [25] = IPA 6% in 10 mM phosphate buffer pH 7, 0.7 mL/min
# [26] = IPA 8% in 10 mM phosphate buffer pH 7, 0.7 mL/min
# [27] = IPA 10% in 10 mM phosphate buffer pH 7, 0.7 mL/min
# [28] = MeOH 2% in 10 mM phosphate buffer pH 7, 0.7 mL/min
# [29] = MeOH 4% in 10 mM phosphate buffer pH 7, 0.7 mL/min
# [30] = MeOH 6% in 10 mM phosphate buffer pH 7, 0.7 mL/min
# [31] = MeOH 8% in 10 mM phosphate buffer pH 7, 0.7 mL/min
# [32] = MeOH 10% in 10 mM phosphate buffer pH 7, 0.7 mL/min
SMILES,"Bound percentage (b%), Average + SD% [1] [%]","Bound percentage (b%) [1, 3] [%]","Bound percentage (b%) [1, 4] [%]","Bound percentage (b%) [1, 5] [%]","Bound percentage (b%) [1, 6] [%]","Bound percentage (b%) [1, 7] [%]","retention factor k [2, 8]","retention factor k [2, 9]","retention factor k [2, 10]","retention factor k [2, 11]","retention factor k [2, 12]","retention factor k [2, 13]","retention factor k [2, 14]","retention factor k [2, 15]","retention factor k [2, 16]","retention factor k [2, 17]","retention factor k [2, 18]","retention factor k [2, 19]","retention factor k [2, 20]","retention factor k [2, 21]",also measured
CCOc1cc([C@H](CS(C)(=O)=O)N2C(=O)c3cccc(NC(C)=O)c3C2=O)ccc1OC [R-APR],92.7 ± 1.5,94.0,91.3,91.4,92.1,94.5,8.99,5.96,4.19,1.99,1.32,7.56,3.98,2.80,2.03,1.42,8.72,4.93,3.33,2.83,"retention factor k [2, 22]: 2.66; retention factor k [2, 23]: 8.04; retention factor k [2, 24]: 5.00; retention factor k [2, 25]: 3.01; retention factor k [2, 26]: 2.26; retention factor k [2, 27]: 1.45; retention factor k [2, 28]: 13.05; retention factor k [2, 29]: 9.32; retention factor k [2, 30]: 6.05; retention factor k [2, 31]: 4.48; retention factor k [2, 32]: 3.72"
"CCOc1cc([C@@H](CS(C)(=O)=O)N2C(=O)c3cccc(NC(C)=O)c3C2=O)ccc1OC [S-APR, apremilast]",95.5 ± 1.3,96.4,93.7,94.8,95.7,96.8,13.98,8.04,5.20,2.25,1.32,10.05,4.90,3.09,2.03,1.42,13.84,6.52,4.12,3.20,"retention factor k [2, 22]: 2.94; retention factor k [2, 23]: 13.48; retention factor k [2, 24]: 7.62; retention factor k [2, 25]: 3.76; retention factor k [2, 26]: 2.56; retention factor k [2, 27]: 1.45; retention factor k [2, 28]: 19.00; retention factor k [2, 29]: 15.27; retention factor k [2, 30]: 8.07; retention factor k [2, 31]: 5.32; retention factor k [2, 32]: 3.98"
